# Entries after “also recorded” stand apart in the source; their conditions may differ.
# Key:
# scopolamine-treated mice [1] = test: Novel object recognition (NOR) task after scopolamine challenge; type: in vivo; settings: scopolamine 0.5 mg/kg s.c.
# Method: (§1) Both novel object recognition (NOR) and novel object location (NOL) tests were carried out in an open-field arena during three phases ([Leger et al., 2013]; [Vogel-Ciernia and Wood, 2014]; [Lueptow, 2017]). (i) For the habituation phase on the first day, mice were allowed to freely explore the empty apparatus. (ii) On the second day, two identical objects were placed at two opposite edges of the arena. Time spent by the mouse exploring the two objects was recorded. (iii) Twenty-four hours later, one of the two familiar objects was replaced by a novel one (NOR) or displaced (NOL). Mice were allowed to explore the whole arena during 10 min for each of the three phases. The preference index was calculated as the ratio of the duration of contacts with the novel/displaced object over the total duration of contacts with the two objects. Locomotion was recorded using EthoVision software (Noldus, Paris, France).
# [2] = test system: ACh outflow in the hippocampus; test: Hippocampal microdialysis and quantification of ACh; type: in vivo, mice
# Method: Mice were anesthetized with isoflurane, placed in a stereotaxic frame and bilaterally implanted with probes in both left and right hippocampi.
# Concentrations of ACh in the microdialysis samples were analyzed by the Pronexus Analytical AB company (Stockholm, Sweden) using UHPLC tandem mass spectrometry (MS/MS). Briefly, the UHPLC-MS/MS system included a PAL autosampler (CTC Analytics, Zwingen, Switzerland), an Advance UHPLC pump, and an EVOQ Elite triple quadrupole mass spectrometer (Bruker Daltonics, Fremont, CA, United States) equipped with electrospray ionization source operating in a positive mode at +4,500 V. The source parameters were as follows: probe gas flow: 50, nebulizer gas flow: 60, probe temperature: +300°C, cone gas flow: 30, cone temperature: +200°C, CID gas: Ar 1.5 mTorr. A Titan PFP column (100 × 2.1 mm, 1.9 μm, 120 Å pore size) purchased from Sigma-Aldrich (Sweden) was used for UHPLC. Deuterated ACh (acetylcholine-1,1,2,2-d4 bromide; ACh-d4), used as internal standard, was purchased from C/D/N Isotopes (QMX Laboratories, Dunmow CM6 2PY, United Kingdom). Typically, 10 μL of aCSF or hippocampal microdialysate was mixed with 20 μL of ACh-d4 internal standard (50 nM, in aCSF), and 5 μL of the mixture was injected into the column. The mobile phase A was 0.1% (vol/vol) formic acid in water; the mobile phase B was acetonitrile with 0.1% formic acid. The linear elution gradient was as follows: 0–0.5 min: 5% B; 3.5 min: 55% B; 3.6 to 4.0 min: 70% B; 4.1 min, 5% B. The flow rate was 400 μL/min, and the total run-to-run time was 4.8 min. The calibration curve was linear in the range of 0.1 to 409.6 nM ACh (R^2 = 0.999); the estimated limit of detection was 0.05 nM, and the lower limit of quantification was 0.15 nM.
# . 1 mg/kg, i.p.), or vehicle (NaCl 0.9%). Values are expressed as means ± SEM, n = 4–7 per group. Two-way ANOVA followed by Fisher least significant difference: *P < 0.05, **P < 0.01 vs Vehicle; […]. Acetylcholinesterase activity is expressed as percent of that determined in the absence of drugs. […]
# [3] = test system: scopolamine-treated mice injected with sh-GFP, sh-Cx30 or sh-Cx43; test: Novel object location (NOL) task in lentiviral vector-injected, scopolamine-treated mice; type: in vivo
# astrocyte Cx expression = test system: astrocyte Cx expression; set-up: method as in Biswas et al., 2018; settings: ref Biswas et al., 2018; cited from earlier work
# [4] = test system: Aβ25–35 peptide-injected mice; test: Morris water maze in Aβ25–35-injected mice
# From the text: Control groups received the vehicles only under the very same conditions (volume, time, route of administration) as tested drugs.
# Both peptides Aβ25–35 and Sc.Aβ (scramble Aβ25–35) were purchased from PolyPeptides (Strasbourg, France).
# Mice were placed in a circular pool with external cues in the room. […] Training consisted of three swims with 20-min intertrial time each day for 5 days, performed between days 11 and 15 after Aβ25–35 peptide or Sc.Aβ peptide i.c.v. injection. Random starting positions were selected each day, and each animal was allowed a 90-s swim to find the platform. Probe test was performed 24 h after the last swim (day 16 after peptide injection). The platform was removed, and each animal was allowed a free 60-s swim. The time spent in each quadrant was determined. Swimming was recorded using EthoVision software (Noldus).
# scopolamine-treated mice [5] = test: Y-maze spontaneous alternation task after scopolamine challenge; settings: for Spontaneous alternation (Y-maze): effect on scopolamine-induced deficit: scopolamine 0.5 mg/kg s.c.
# Method: Mefloquine (Sigma-Aldrich, L’Isle d’Abeau Chesnes, France) and DPZ (Sigma-Aldrich) were dissolved in 2% dimethyl sulfoxide (DMSO) and administered acutely either intraperitoneally (i.p.) (5 mL/kg) or by oral gavage (p.o.) (10 mL/kg). Scopolamine (Sigma-Aldrich) was administered subcutaneously (s.c.) (5 mL/kg) in saline solution (0.9% NaCl).
# Mice were placed at the end of one arm of a Y-maze and allowed to move freely through the maze during an 8-min session. Spontaneous alternation was defined as entries into all three arms on consecutive occasions. […] The number of total arm entries during the 8-min session was used to quantify locomotor activity.
# [6] = test system: Aβ25–35 peptide-injected mice; test: Novel object recognition (NOR) task in Aβ25–35-injected mice; type: in vivo
# Method: as §1
# mouse hippocampus AChE = molecular target: T1, mouse hippocampus AChE (Mus musculus, UniProt P21836); type: biochemical
# T1 construct: from tissue; host or cells: mouse hippocampus homogenate, cleared supernatant
# T1 sequence (P21836 32-614): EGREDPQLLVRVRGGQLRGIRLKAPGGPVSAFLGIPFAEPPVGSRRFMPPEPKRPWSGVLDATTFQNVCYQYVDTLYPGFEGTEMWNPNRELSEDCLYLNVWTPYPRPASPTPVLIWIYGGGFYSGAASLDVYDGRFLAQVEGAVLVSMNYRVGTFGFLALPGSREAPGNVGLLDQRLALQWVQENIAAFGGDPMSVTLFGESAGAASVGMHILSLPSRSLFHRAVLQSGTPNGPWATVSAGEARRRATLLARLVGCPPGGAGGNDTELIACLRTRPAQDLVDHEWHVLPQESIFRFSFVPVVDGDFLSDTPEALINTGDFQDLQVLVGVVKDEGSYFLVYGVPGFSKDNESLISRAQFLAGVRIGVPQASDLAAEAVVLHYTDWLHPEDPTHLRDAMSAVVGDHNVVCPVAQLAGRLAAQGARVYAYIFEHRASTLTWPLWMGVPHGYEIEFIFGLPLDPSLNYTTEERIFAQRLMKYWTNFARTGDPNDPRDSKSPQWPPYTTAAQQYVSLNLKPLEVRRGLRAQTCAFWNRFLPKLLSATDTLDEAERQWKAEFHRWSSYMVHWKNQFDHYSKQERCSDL
# Method: Acetylcholinesterase activity was quantified using a cholinesterase activity assay kit according to manufacturer’s recommendations (MAK119; Sigma, St. Louis, MO, United States). Briefly, mouse hippocampus was homogenized (10 μL/mg) in 0.1 M Na/K phosphate buffer (PB) (pH 7.5) at 4°C followed by centrifugation at 30,000 × g for 5 min. […] Absorbance at 415 nm was quantified using VICTOR plate reader (Perkin–Elmer Inc., Waltham, Massachusetts, United States) at 2-min intervals from time 0 (tissue sample addition) up to 10 min. Acetylcholinesterase activity was expressed as units/L. One unit of AChE is the amount of enzyme that catalyzes the production of 1.0 μmol of thiocholine per minute at room temperature at pH 7.5.
# Acetylcholinesterase activity is expressed as percent of that determined in the absence of drugs.
# in vivo = settings: rat
# Method: Drugs were administered p.o., once per day for 14 days.
# Blood was collected on the 14th treatment day, just prior to drug administration (T0) and then 30 min, 1, 2, 4, 8, and 24 h later. Blood was collected by retro-orbital puncture except for the last collection, which was made by intracardiac puncture. After coagulation, blood samples were centrifuged at 3,000 × g for 15 min, and serum was collected and stored at −80°C. Rats were sacrificed by decapitation immediately after the last blood collection, and their brains including brainstem and cerebellum were removed as one piece, placed on tinfoil precooled on dry ice and stored at −80°C until drug quantifications.
# One volume of brain or serum samples was added to three volumes of human serum EDTA K3, and the mixture was homogenized under magnetic stirring for 15 min for analysis using a Sciex API4000 Qtrap mass spectrometer coupled to a Shimadzu HPLC system (Shimadzu Corporation, Marne-la-Vallée, France).
# (A,C) Blood samples were collected before treatment (T0) and then at 0.5, 1, 2, 4, 8, and 24 h after the last administration on day 14. (B,D) Brain samples were collected on day 15, 24 h after the last drug administration. […] No statistical analysis applicable (C,D). Bars in black indicate combination treatments.
# sigma-1 receptor = molecular target: T2, sigma-1 receptor (Homo sapiens, UniProt Q99720); test: Eurofins CEREP sigma-1 receptor test; type: binding; settings: MEF at a concentration as high as 1 μM; data not shown
# T2 construct: Eurofins CEREP
# T2 sequence (Q99720 whole entry, species assumed): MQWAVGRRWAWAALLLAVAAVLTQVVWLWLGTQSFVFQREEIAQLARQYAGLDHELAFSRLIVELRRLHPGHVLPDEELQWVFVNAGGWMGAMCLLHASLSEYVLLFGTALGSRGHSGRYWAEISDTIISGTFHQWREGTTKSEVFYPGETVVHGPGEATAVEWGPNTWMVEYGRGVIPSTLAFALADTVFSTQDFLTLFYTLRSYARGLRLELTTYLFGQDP
# 5-HT1A = molecular target: 5-HT1A; set-up: method as in Thompson et al., 2007; Janowsky et al., 2014; settings: ref Thompson et al., 2007; Janowsky et al., 2014; cited from earlier work
# 5-HT2C = molecular target: 5-HT2C; set-up: method as in Thompson et al., 2007; Janowsky et al., 2014; settings: ref Thompson et al., 2007; Janowsky et al., 2014; cited from earlier work
# 5-HT3 receptors = molecular target: 5-HT3 receptors; set-up: method as in Thompson et al., 2007; Janowsky et al., 2014; settings: ref Thompson et al., 2007; Janowsky et al., 2014; cited from earlier work
# [7] = molecular target: noradrenaline transporters; set-up: method as in Janowsky et al., 2014; settings: ref Janowsky et al., 2014; cited from earlier work
# [8] = test system: Cx-mediated astroglial cellular coupling; set-up: method as in Jeanson et al., 2016; settings: same concentration range as reached under the treatment conditions; ref Jeanson et al., 2016; cited from earlier work
# [9] = rat, in vivo; cited from earlier work
compound,measurement,setting,value
"COc1cc2c(cc1OC)C(=O)C(CC1CCN(Cc3ccccc3)CC1)C2 (stereo not shown) [DPZ, Donepezil]",NOR test session: effect on scopolamine-induced loss of novel object preference,scopolamine-treated mice [1]; DPZ 0.25 mg/kg i.p.,"Neither MEF1 i.p., nor DPZ0.25 i.p., prevented the scopolamine effect"
same,NOR test session: effect on scopolamine-induced loss of novel object preference,scopolamine-treated mice [1]; DPZ 1 mg/kg i.p.,restore exploration preference of the novel object
same,Hippocampal ACh outflow,[2]; DPZ 0.25 mg/kg i.p. alone,did not significantly modify ACh outflow
same,Increase of hippocampal ACh levels,"[2]; DPZ 1 mg/kg i.p., 20 min after injection",up to 2.5 fold
same,NOL task: effect on scopolamine-induced memory deficit,"[3]; DPZ 0.25 mg/kg i.p., sh-Cx30 group",significantly reduced the scopolamine effect
same,NOL task: effect on scopolamine-induced memory deficit,"[3]; DPZ 0.25 mg/kg i.p., sh-Cx43 group",significantly reduced the scopolamine effect
same,NOL task: effect on scopolamine-induced memory deficit,"[3]; DPZ 0.25 mg/kg i.p., sh-GFP injected mice",unable to prevent the memory deficit caused by scopolamine
same,NOL task: effect on scopolamine-induced memory deficit,"[3]; DPZ 1 mg/kg i.p., all groups (sh-GFP, sh-Cx30, sh-Cx43)",able to prevent NOL memory deficits induced by scopolamine
same,Astrocyte Cx expression levels,astrocyte Cx expression,not to significantly alter astrocyte Cx expression levels
same,Morris water maze learning (swim latency): effect on Aβ-induced memory deficit,[4]; DPZ 0.25 mg/kg p.o. daily,showed no effect
same,Morris water maze probe test: time spent in target quadrant,"[4]; DPZ 1 mg/kg p.o. daily, day 16",restored performance up to the level noted in Sc.Aβ-injected control mice
same,Morris water maze learning (swim latency): effect on Aβ-induced memory deficit,"[4]; DPZ 1 mg/kg p.o. daily, learning days 2 to 5",significantly reversed the Aβ-induced memory deficits
same,Spontaneous alternation (Y-maze): effect on scopolamine-induced deficit,scopolamine-treated mice [5]; DPZ 0.1 mg/kg i.p. 40 min before task,exerted no effect
same,Spontaneous alternation (Y-maze): effect on scopolamine-induced deficit,scopolamine-treated mice [5]; DPZ 0.25 mg/kg p.o. 40 min before task,did not reverse scopolamine-induced deficit
same,Spontaneous alternation (Y-maze): effect on scopolamine-induced deficit,scopolamine-treated mice [5]; DPZ 0.5 mg/kg i.p. 40 min before task,significantly reversed the scopolamine-induced deficit
"OC(c1cc(C(F)(F)F)nc2c(C(F)(F)F)cccc12)C1CCCCN1 (stereo not shown) [MEF, Mefloquine]",NOR test session: effect on scopolamine-induced loss of novel object preference,scopolamine-treated mice [1]; MEF 1 mg/kg i.p.,"Neither MEF1 i.p., nor DPZ0.25 i.p., prevented the scopolamine effect"
same,NOR test phase: effect on Aβ-induced impairment (preference index),"[6]; MEF 1 mg/kg p.o. daily from day 1, Aβ25–35 i.c.v.",did not reverse the Aβ-induced impairment
same,Hippocampal ACh outflow,[2]; MEF 1 mg/kg i.p. alone,did not significantly modify ACh outflow
same,Effect of MEF on the potency of DPZ to inhibit AChE activity,"mouse hippocampus AChE; MEF 0.5–4 μM added to DPZ, brain extracts",did not modify the potency of DPZ to inhibit AChE activity; also recorded: failed to affect DPZ-induced inhibition of AChE activity
same,Effect of MEF on AChE activity,mouse hippocampus AChE; even at 10 times the concentration reached in the brain,devoid of any effect on AChE activity
same,concentration at 24 h,in vivo,~500 nM
same,Interference with sigma-1 receptor,sigma-1 receptor,does not interfere with sigma-1 receptor
same,Ki,5-HT1A,> 1 µM
same,Ki,5-HT2C,> 1 µM
same,Ki,5-HT3 receptors,> 1 µM
same,Ki,[7],> 1 µM
same,Cx-mediated astroglial cellular coupling,[8],efficiently reduces Cx-mediated astroglial cellular coupling
same,Crossing of the blood–brain barrier,[9],able to cross the blood–brain barrier
same,Morris water maze learning (swim latency): effect on Aβ-induced memory deficit,[4]; MEF 1 mg/kg p.o. daily,showed no effect
"CN1[C@@H]2C[C@@H](OC(=O)[C@H](CO)c3ccccc3)C[C@H]1[C@@H]1O[C@@H]12 [scopolamine, Scopolamine]",NOR test session: effect of scopolamine on exploration of the novel object,scopolamine-treated mice [1],abolished the increase in exploration time of the novel object
same,NOL task: preference index for the displaced object,"[3]; scopolamine 0.5 mg/kg s.c., all LV-injected mice",~50%
same,Spontaneous alternation (Y-maze): effect of scopolamine vs vehicle-treated mice,scopolamine-treated mice [5]; scopolamine 0.5 mg/kg s.c. 20 min before task,significantly impaired spontaneous alternation
"Aβ: Aβ25–35 peptide injected i.c.v. to induce Alzheimer’s disease–like memory deficits (GSNKGAIIGLM; Amyloid-beta protein 42; UniProt P05067 696-706, looked up, fragment)",NOR test phase: effect of Aβ administration on exploration of the novel object,[6]; 9 nmol Aβ25–35 i.c.v.,abolished the increase in exploration time of the novel object
same,Morris water maze learning: effect of Aβ i.c.v. injection vs Sc.Aβ,"[4]; 9 nmol Aβ25–35 i.c.v., learning days 3–5",induced a significant memory deficit

# — article PMC7309601 (Frontiers in Neuroscience, 2020)
